Laboratory results reported in US10221171B2, “Oxathiazole thiazolium Hsp 70 inhibitors” (THE REGENTS OF THE UNIVERSITY OF CALIFORNIA, priority 2015, dated 2019).
Where two headings read alike, the source gives them in different places.

Experiments:
Format in all cases: cell-based
MEF (C57BL/6) = assay: MTT cell viability assay, MEF (C57BL/6); settings: Mus musculus
Method: (§1) Cells were then treated with compound at various concentrations in 0.2 mL media. After the 72-hour incubation period, cells were washed in PBS (3×100 μL), and 10 μL MTT reagent was added with 100 μL fresh media. Cells were then incubated for 4 hr in a humidified chamber at 37° C. with 5% CO2. Insoluble formazan crystals were solubilized by addition of 0.1 mL detergent solution (4 hr at room temp., dark). Resulting colored solutions were then quantified at an absorbance of 570 nm.

MDA-MB-231 = assay: MTT cell viability assay, MDA-MB-231; settings: Homo sapiens
Method: as §1

MCF-7 = assay: MTT cell viability assay, MCF-7; settings: Homo sapiens, read-out: IC50/μM MCF-7
Method: as §1

[1] = MTT, 72-hour incubation, read-out: IC50/μM MEF (C57BL/6)
[2] = 72 h, read-out: IC50/μM MEF (C57BL/6), MTT, 72-hour incubation
[3] = MDA-MB-231, 72 h, 72-hour incubation
[4] = MCF7, 72 h, MTT, 72-hour incubation

IC50 (MDA-MB-231; MDA-MB-231, 72-hour incubation) [µM]	IC50 (MCF-7; MCF7, MTT, 72-hour incubation) [µM]	SMILES	IC50 (MEF (C57BL/6); [1]) [µM]	IC50 (MEF (C57BL/6); [2]) [µM]	IC50 (MDA-MB-231; [3]) [µM]	IC50 (MCF-7; [4]) [µM]	IC50 (MCF-7; MCF7, 72 h) [µM]
1.8 ± 0.3	1.58 ± 0.18	CCn1c(=O)/c(=C2\Sc3cc(Cl)ccc3N2C)s/c1=C\c1scc[n+]1Cc1ccccc1OC(C)=O [JG-247]	6.1 ± 0.3	–	–	–	–
0.11 ± 0.01	0.14 ± 0.01	CCn1c(=O)/c(=C2\Sc3cc(C)ccc3N2C)s/c1=C\c1scc[n+]1Cc1ccsc1C(=O)OC [JG-248]	1.2 ± 0.2	–	–	–	–
–	–	CCn1c(=O)/c(=C2\Sc3cc(SC)ccc3N2C)s/c1=C\c1scc[n+]1Cc1ccccc1 [JG-249]	–	1.7 ± 0.1	0.12 ± 0.01	0.13 ± 0.01	–
–	–	CCn1c(=O)/c(=C2\Sc3cc(OC)ccc3N2C)s/c1=C\c1scc[n+]1Cc1ccccc1 [JG-250]	2 ± 0.1	–	0.16 ± 0.01	0.13 ± 0.01	–
1.1 ± 0.1	2.5 ± 0.5	CCn1c(=O)/c(=C2\Sc3cc(F)c(F)cc3N2C)s/c1=C\c1scc[n+]1Cc1ccccc1 [JG-251]	0.91 ± 0.06	–	–	–	–
–	–	CCn1c(=O)/c(=C2\Sc3cc(Cl)ccc3N2C)s/c1=C\c1scc[n+]1Cc1ccccc1SC(F)(F)F [JG-253]	–	3.7 ± 0.2	0.16 ± 0.01	0.13 ± 0.01	–
0.1 ± 0.01	0.65 ± 0.13	CCn1c(=O)/c(=C2\Sc3cc(F)ccc3N2C)s/c1=C\c1scc[n+]1Cc1ccccc1SC(F)(F)F [JG-254]	1.5 ± 0.1	–	–	–	–
–	–	CCn1c(=O)/c(=C2\Sc3cc(Cl)ccc3N2C)s/c1=C\c1scc[n+]1Cc1ccc(Cl)cc1 [JG-255]	–	3.1 ± 0.3	0.41 ± 0.06	1.45 ± 0.13	–
> 20	> 5	CCn1c(=O)/c(=C2\SCCN2C)s/c1=C\c1scc[n+]1Cc1ccccc1 [JG-258]	> 10	–	–	–	–
6.7 ± 0.5	> 5	CCn1c(=O)/c(=C2\Sc3cc(F)ccc3N2C)s/c1=C\c1scc[n+]1Cc1cnc(Cl)s1 [JG-260]	8.2 ± 0.4	–	–	–	–
> 20	> 5	CCn1c(=O)/c(=C2\Sc3cc(F)ccc3N2C)s/c1=C\c1scc[n+]1Cc1csc(NC(C)=O)n1 [JG-262]	> 10	–	–	–	–
–	–	CCn1c(=O)/c(=C2\Sc3cc(Cl)ccc3N2C)s/c1=C\c1scc[n+]1Cc1ccccc1OC [JG-263]	–	1.5 ± 0.1	0.12 ± 0.01	–	0.4 ± 0.03
0.24 ± 0.03	0.49 ± 0.04	CCn1c(=O)/c(=C2\Sc3cc(F)ccc3N2C)s/c1=C\c1scc[n+]1Cc1ccccc1OC [JG-264]	1.4 ± 0.1	–	–	–	–
–	–	CCn1c(=O)/c(=C2\Sc3cc(Cl)ccc3N2C)s/c1=C\c1scc[n+]1Cc1occc1C(=O)OC [JG-265]	–	2.7 ± 0.1	0.13 ± 0.01	0.81 ± 0.09	–
0.3 ± 0.02	0.87 ± 0.11	CCn1c(=O)/c(=C2\Sc3cc(F)ccc3N2C)s/c1=C\c1scc[n+]1Cc1occc1C(=O)OC [JG-266]	2.7 ± 0.2	–	–	–	–
> 20	> 5	CCn1c(=O)/c(=C2\Sc3cc(F)ccc3N2C)s/c1=C\c1scc[n+]1Cc1c(C)noc1C [JG-268]	> 10	–	–	–	–
0.26 ± 0.04	0.18 ± 0.01	CCn1c(=O)/c(=C2\Sc3cc(Cl)ccc3N2C)s/c1=C\c1scc[n+]1CCc1ccccc1 [JG-269]	2.2 ± 0.1	–	–	–	–
–	–	CCn1c(=O)/c(=C2\Sc3cc(C)ccc3N2C)s/c1=C\c1scc[n+]1Cc1ccccc1OC(F)(F)F [JG-270]	–	0.75 ± 0.05	0.077 ± 0.009	0.064 ± 0.005	–
–	–	CCn1c(=O)/c(=C2\Sc3cc(Cl)ccc3N2C)s/c1=C\c1scc[n+]1Cc1cccc(Cl)c1 [JG-271]	–	0.69 ± 0.03	0.51 ± 0.06	0.26 ± 0.02	–
0.77 ± 0.1	0.36 ± 0.02	CCn1c(=O)/c(=C2\Sc3cc(F)ccc3N2C)s/c1=C\c1scc[n+]1Cc1cccc(Cl)c1 [JG-272]	0.62 ± 0.03	–	–	–	–
> 20	> 5	CCn1c(=O)/c(=C2\SCCN2C)s/c1=C\c1ccccn1 [JG-273]	> 10	–	–	–	–
0.08 ± 0.008	0.098 ± 0.008	CCn1c(=O)/c(=C2\Sc3cc(Cl)ccc3N2C)s/c1=C\c1scc[n+]1Cc1nc(C)sc1C [JG-274]	4.2 ± 0.4	–	–	–	–
0.3 ± 0.03	0.27 ± 0.03	CCn1c(=O)/c(=C2\Sc3cc(F)ccc3N2C)s/c1=C\c1scc[n+]1Cc1nc(C)sc1C [JG-275]	1.6 ± 0.1	–	–	–	–

IC50 (MDA-MB-231; MDA-MB-231, 72-hour incubation) [µM]	IC50 (MCF-7; MCF7, MTT, 72-hour incubation) [µM]	SMILES	IC50 (MEF (C57BL/6); [1]) [µM]	IC50 (MEF (C57BL/6); [2]) [µM]	IC50 (MDA-MB-231; [3]) [µM]	IC50 (MCF-7; [4]) [µM]	IC50 (MCF-7; MCF7, 72 h) [µM]
0.27 ± 0.03	0.24 ± 0.02	C=CCn1c(=O)/c(=C2\Sc3ccccc3N2C)s/c1=C\c1scc[n+]1Cc1ccccc1 [JG-276]	2.5 ± 0.1	–	–	–	–
0.49 ± 0.05	0.39 ± 0.03	CN1/C(=c2\s/c(=C\c3scc[n+]3Cc3ccccc3)n(C)c2=O)Sc2ccccc21 [JG-277]	4.1 ± 0.2	–	–	–	–
0.23 ± 0.04	0.39 ± 0.06	CCn1c(=O)/c(=C2\Sc3cc(Br)ccc3N2C)s/c1=C\c1scc[n+]1Cc1ccsc1 [JG-278]	3.4 ± 0.2	–	–	–	–
0.15 ± 0.01	0.14 ± 0.03	CCn1c(=O)/c(=C2\Sc3cc(C)ccc3N2C)s/c1=C\c1scc[n+]1Cc1ccsc1 [JG-279]	2.2 ± 0.1	–	–	–	–
0.16 ± 0.02	0.6 ± 0.06	CN1/C(=c2\s/c(=C\c3scc[n+]3Cc3ccccc3)n(C)c2=O)Sc2cc(Cl)ccc21 [JG-281]	5.7 ± 0.3	–	–	–	–
0.26 ± 0.03	0.29 ± 0.04	CN1/C(=c2\s/c(=C\c3scc[n+]3Cc3ccccc3)n(C)c2=O)Sc2cc(F)cc(F)c21 [JG-282]	2.5 ± 0.1	–	–	–	–
0.088 ± 0.005	0.063 ± 0.007	CCn1c(=O)/c(=C2\Sc3cc(C)ccc3N2C)s/c1=C\c1scc[n+]1Cc1ccccc1Cl [JG-283]	0.45 ± 0.02	–	–	–	–
0.09 ± 0.005	0.09 ± 0.006	CCn1c(=O)/c(=C2\Sc3cc(C)ccc3N2C)s/c1=C\c1scc[n+]1Cc1ccccc1C [JG-284]	0.64 ± 0.03	–	–	–	–
0.062 ± 0.01	0.078 ± 0.003	CCn1c(=O)/c(=C2\Sc3cc(C)ccc3N2C)s/c1=C\c1scc[n+]1Cc1ccccc1C(F)(F)F [JG-285]	0.66 ± 0.06	–	–	–	–
0.14 ± 0.01	0.27 ± 0.02	CCn1c(=O)/c(=C2\Sc3cc(C)ccc3N2C)s/c1=C\c1scc[n+]1Cc1ccc(C(F)(F)F)o1 [JG-286]	5 ± 0.6	–	–	–	–
1.3 ± 0.3	1.73 ± 0.2	CCn1c(=O)/c(=C2\Sc3cc(Cl)ccc3N2C)s/c1=C\c1scc[n+]1Cc1ccccc1S(C)(=O)=O [JG-287]	> 10	–	–	–	–
0.64 ± 0.08	1.97 ± 0.11	CCn1c(=O)/c(=C2\Sc3cc(F)ccc3N2C)s/c1=C\c1scc[n+]1Cc1ccccc1S(C)(=O)=O [JG-288]	> 10	–	–	–	–
0.12 ± 0.02	0.27 ± 0.02	CCn1c(=O)/c(=C2\Sc3cc(Br)ccc3N2C)s/c1=C\c1scc[n+]1Cc1ccccc1Cl [JG-289]	0.96 ± 0.05	–	–	–	–
0.21 ± 0.02	0.16 ± 0.01	CCn1c(=O)/c(=C2\Sc3cc(Br)ccc3N2C)s/c1=C\c1scc[n+]1Cc1ccccc1C [JG-290]	1.7 ± 0.1	–	–	–	–
0.14 ± 0.01	0.14 ± 0.01	CCn1c(=O)/c(=C2\Sc3cc(Br)ccc3N2C)s/c1=C\c1scc[n+]1Cc1ccccc1OC(F)(F)F [JG-291]	2.3 ± 0.1	–	–	–	–
0.18 ± 0.02	0.12 ± 0.01	CCn1c(=O)/c(=C2\Sc3cc(Br)ccc3N2C)s/c1=C\c1scc[n+]1Cc1ccccc1C(F)(F)F [JG-292]	2.7 ± 0.1	–	–	–	–
0.14 ± 0.03	0.3 ± 0.03	CCn1c(=O)/c(=C2\Sc3cc(Br)ccc3N2C)s/c1=C\c1scc[n+]1Cc1ccsc1C(=O)OC [JG-293]	3.1 ± 0.3	–	–	–	–
0.093 ± 0.005	0.084 ± 0.006	CCc1ccc2c(c1)S/C(=c1/s/c(=C\c3scc[n+]3Cc3ccccc3Cl)n(CC)c1=O)N2C [JG-295]	0.48 ± 0.01	–	–	–	–
0.14 ± 0.01	0.1 ± 0.01	CCc1ccc2c(c1)S/C(=c1/s/c(=C\c3scc[n+]3Cc3ccccc3C)n(CC)c1=O)N2C [JG-296]	0.61 ± 0.02	–	–	–	–
0.097 ± 0.006	0.08 ± 0.005	CCc1ccc2c(c1)S/C(=c1/s/c(=C\c3scc[n+]3Cc3ccccc3OC(F)(F)F)n(CC)c1=O)N2C [JG-297]	0.41 ± 0.01	–	–	–	–
0.11 ± 0.01	0.052 ± 0.004	CCc1ccc2c(c1)S/C(=c1/s/c(=C\c3scc[n+]3Cc3ccccc3C(F)(F)F)n(CC)c1=O)N2C [JG-298]	0.43 ± 0.02	–	–	–	–
0.071 ± 0.009	0.083 ± 0.007	CCc1ccc2c(c1)S/C(=c1/s/c(=C\c3scc[n+]3Cc3ccsc3C(=O)OC)n(CC)c1=O)N2C [JG-299]	0.92 ± 0.04	–	–	–	–

SMILES	IC50 (MDA-MB-231; MDA-MB-231, 72-hour incubation) [µM]	IC50 (MCF-7; MCF7, MTT, 72-hour incubation) [µM]	IC50 (MEF (C57BL/6); [1]) [µM]	IC50 (MEF (C57BL/6); [2]) [µM]	IC50 (MDA-MB-231; [3]) [µM]	IC50 (MCF-7; [4]) [µM]	IC50 (MCF-7; MCF7, 72 h) [µM]
CCn1c(=O)/c(=C2\Sc3cc([N+](=O)[O-])ccc3N2C)s/c1=C\c1scc[n+]1Cc1ccccc1 [JG-252]	–	> 5	–	2.8 ± 0.1	4.8 ± 0.4	–	–
CCn1c(=O)/c(=C2\Sc3cc(Cl)ccc3N2C)s/c1=C\c1scc[n+]1Cc1ccc(Cl)cc1 [JG-256]	1.1 ± 0.1	0.72 ± 0.06	2.2 ± 0.1	–	–	–	–
CCn1c(=O)/c(=C2\Sc3cc(Cl)ccc3N2C)s/c1=C\c1scc[n+]1Cc1ccnc(Cl)c1 [JG-257]	–	> 5	1.1 ± 0.1	–	7.2 ± 0.8	–	–
CCn1c(=O)/c(=C2\Sc3cc(Cl)ccc3N2C)s/c1=C\c1scc[n+]1Cc1cnc(Cl)s1 [JG-259]	–	> 5	–	8.9 ± 0.8	2.3 ± 0.3	–	–
CCn1c(=O)/c(=C2\Sc3cc(Cl)ccc3N2C)s/c1=C\c1scc[n+]1Cc1csc(NC(C)=O)n1 [JG-261]	> 20	> 5	–	4.2 ± 0.6	–	–	–
CCn1c(=O)/c(=C2\Sc3cc(Cl)ccc3N2C)s/c1=C\c1scc[n+]1Cc1c(C)noc1C [JG-267]	10 ± 2	> 5	–	7.6 ± 0.3	–	–	–
C=CCn1c(=O)/c(=C2\Sc3cc(Cl)ccc3N2C)s/c1=C\c1scc[n+]1Cc1ccccc1 [JG-280]	0.1 ± 0.01	–	–	2.4 ± 0.1	–	0.17 ± 0.02	–
